Measured values: US20130053381A1, “2,4-DIOXO-1,4-DIHYDRO-2H-QUINAZOLIN-3-YL-SULFONAMIDE DERIVATIVES” (NOVARTIS AG, priority 2010, published 2013)
Read-outs that look alike come from different tables or passages of the source.

Tested on: OF1 mice
Assay: Maximal electroshock test (MES Test)
Format: in vivo
Settings: for responders at 50 mg/kg / responders at 15 mg/kg / responders at 25 mg/kg: Mus musculus, read-out: %-Protection; for responders at 50 mg/kg: p.o.; for responders at 15 mg/kg: p.o. (footnote c); for responders at 25 mg/kg: p.o. (footnote b)
Procedure, shortened: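 Readout: fraction of five OF1 mice protected, meaning seizure duration 3 s or less, after a 50 Hz, 18 mA, 0.2 s temporal-electrode shock. Dosing was oral, usually 50 mg/kg, one hour beforehand; ED50 values were derived and post-shock blood taken for exposure.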

[1] = dose of up to 50 mg/kg, 1 hour prior to induction of convulsions
[2] = po, 50 mg/kg, pre-treatment time −1 h

SMILES	responders at 50 mg/kg [1] [%]	responders at 50 mg/kg [2] [%]	further results
CCCCC(=O)N(n1c(=O)[nH]c2cc(C(F)(F)F)c(-c3ccnn3CC)cc2c1=O)S(C)(=O)=O [N-[6-(2-Ethyl-2H-pyrazol-3-yl)-2,4-dioxo-7-trifluoromethyl-1,4-dihydro-2H-quinazolin-3-yl]-N-pentanoyl-methanesulfonamide]	0	–	–
CC(C)COC(=O)N(n1c(=O)[nH]c2cc(C(F)(F)F)c(-c3ccnn3C(C)C)cc2c1=O)S(C)(=O)=O [Example 5.09, [6-(2-Isopropyl-2H-pyrazol-3-yl)-2,4-dioxo-7-trifluoromethyl-1,4-dihydro-2H-quinazolin-3-yl]-methanesulfonyl-carbamic acid isobutyl ester]	–	40	–
CCC(=O)N(n1c(=O)c2cc(-c3ccnn3C)c(C(C)C)cc2n(C(=O)CC)c1=O)S(C)(=O)=O [Example 3.25, N-[7-Isopropyl-6-(2-methyl-2H-pyrazol-3-yl)-2,4-dioxo-1-propionyl-1,4-dihydro-2H-quinazolin-3-yl]-N-propionyl-methanesulfonamide]	–	100	–
CCCCC(=O)N(n1c(=O)[nH]c2cc(C(C)C)c(-c3ccnn3C)cc2c1=O)S(C)(=O)=O [Example 3.09, N-[7-Isopropyl-6-(2-methyl-2H-pyrazol-3-yl)-2,4-dioxo-1,4-dihydro-2H-quinazolin-3-yl]-N-pentanoyl-methanesulfonamide]	–	–	responders at 15 mg/kg (po, pre-treatment time −1 h): 100%
CC(C)C(=O)N(n1c(=O)[nH]c2cc(C(F)(F)F)c([C@H]3CCCO3)cc2c1=O)S(C)(=O)=O [N—((R)-2,4-Dioxo-6-tetrahydro-furan-2-yl-7-trifluoromethyl-1,4-dihydro-2H-quinazolin-3-yl)-N-isobutyryl-methanesulfonamide]	0	–	–
CCCCCOC(=O)N(n1c(=O)[nH]c2cc(C(F)(F)F)c([C@H]3CCCO3)cc2c1=O)S(C)(=O)=O [Methanesulfonyl-[(R)-2,4-Dioxo-6-tetrahydro-furan-2-yl-7-trifluoromethyl-1,4-dihydro-2H-quinazolin-3-yl]carbamic acid pentyl ester]	0	–	–
CC(=O)OCC(=O)N(n1c(=O)[nH]c2cc(C(F)(F)F)c(-n3cccc3)cc2c1=O)S(C)(=O)=O [Example 8.03, Acetic acid 2-[(2,4-dioxo-6-pyrrol-1-yl-7-trifluoromethyl-1,4-dihydro-2H-quinazolin-3-yl)-methanesulfonyl-amino]-2-oxo-ethyl ester]	–	40	–
CC(C)C(=O)N(n1c(=O)[nH]c2cc(C(F)(F)F)c(-c3ccnn3C(C)C)cc2c1=O)S(C)(=O)=O [Example 5.05, N-Isobutyryl-N-[6-(2-isopropyl-2H-pyrazol-3-yl)-2,4-dioxo-7-trifluoromethyl-1,4-dihydro-2H-quinazolin-3-yl]-methanesulfonamide]	–	60	–
CCc1cc2[nH]c(=O)n(N(C(=O)OCC(C)C)S(C)(=O)=O)c(=O)c2cc1-c1ccnn1CC [Example 13.01, Methanesulfonyl-[7-ethyl-6-(2-ethyl-2H-pyrazol-3-yl)-2,4-dioxo-1,4-dihydro-2H-quinazolin-3-yl]carbamic acid isobutyl ester]	–	20	–
CCCCCC(=O)N(n1c(=O)[nH]c2cc(CC)c(-c3ccnn3C)cc2c1=O)S(C)(=O)=O [Example 2.03, N-[7-Ethyl-6-(2-methyl-2H-pyrazol-3-yl)-2,4-dioxo-1,4-dihydro-2H-quinazolin-3-yl]-N-hexanoyl-methanesulfonamide]	–	–	responders at 25 mg/kg (po, pre-treatment time −1 h): 100%
CCOC(=O)CCC(=O)N(n1c(=O)[nH]c2cc(C(F)(F)F)c(-c3ccnn3C(C)C)cc2c1=O)S(C)(=O)=O [4-{[6-(2-Isopropyl-2H-pyrazol-3-yl)-2,4-dioxo-7-trifluoromethyl-1,4-dihydro-2H-quinazolin-3-yl]-methanesulfonyl-amino}-4-oxo-butyric acid ethyl ester]	0	–	–
CCOC(=O)N(n1c(=O)[nH]c2cc(C(F)(F)F)c(-n3ccnc3C)cc2c1=O)S(C)(=O)=O [Example 7.01, Methanesulfonyl-[6-(2-methyl-imidazol-1-yl)-2,4-dioxo-7-trifluoromethyl-1,4-dihydro-2H-quinazolin-3-yl]-carbamic acid ethyl ester]	–	40	–
CCCOC(=O)N(n1c(=O)c2cc(-c3ccnn3C)c(C(C)C)cc2n(C(=O)OCCC)c1=O)S(C)(=O)=O [Example 3.34, 7-Isopropyl-3-(methanesulfonyl-propoxycarbonyl-amino)-6-(2-methyl-2H-pyrazol-3-yl)-2,4-dioxo-3,4-dihydro-2H-quinazoline-1-carboxylic acid propyl ester]	–	80	–
CCC(=O)N(n1c(=O)[nH]c2cc(C(F)F)c(-c3ccnn3C(C)C)cc2c1=O)S(C)(=O)=O [Example 6.05, N-[7-Difluoromethyl-6-(2-isopropyl-2H-pyrazol-3-yl)-2,4-dioxo-1,4-dihydro-2H-quinazolin-3-yl]-N-propionyl-methanesulfonamide]	–	80	responders at 25 mg/kg (po, pre-treatment time −1 h): 60%
CCc1cc2[nH]c(=O)n(N(C(=O)OCC(C)C)S(C)(=O)=O)c(=O)c2cc1-c1ccnn1C [Example 2.04, Methanesulfonyl-[7-ethyl-6-(2-methyl-2H-pyrazol-3-yl)-2,4-dioxo-1,4-dihydro-2H-quinazolin-3-yl]-carbamic acid isobutyl ester]	–	–	responders at 25 mg/kg (po, pre-treatment time −1 h): 80%
CCCCC(=O)N(n1c(=O)[nH]c2cc(C(F)(F)F)c(-n3ccnc3)cc2c1=O)S(C)(=O)=O [Example 4.02, N-(6-Imidazol-1-yl-2,4-dioxo-7-trifluoromethyl-1,4-dihydro-2H-quinazolin-3-yl)-N-pentanoyl-methanesulfonamide]	–	100	%-seizure protection (single 50 mg/kg p.o. dose, 30 min after treatment, MES Test): 100%
CCCCCC(=O)N(n1c(=O)[nH]c2cc(C(C)C)c(-c3ccnn3C)cc2c1=O)S(C)(=O)=O [Example 3.14, N-Hexanoyl-N-[7-isopropyl-6-(2-methyl-2H-pyrazol-3-yl)-2,4-dioxo-1,4-dihydro-2H-quinazolin-3-yl]-methanesulfonamide]	–	100	–
CC(C)C(=O)N(n1c(=O)[nH]c2cc(C(F)F)c(-c3ccnn3C(C)C)cc2c1=O)S(C)(=O)=O [N-[7-Difluoromethyl-6-(2-isopropyl-2H-pyrazol-3-yl)-2,4-dioxo-1,4-dihydro-2H-quinazolin-3-yl]-N-isobutyryl-methanesulfonamide]	0	–	–
CCCCOC(=O)N(n1c(=O)[nH]c2cc(C(F)F)c(-c3ccnn3C(C)C)cc2c1=O)S(C)(=O)=O [[7-Difluoromethyl-6-(2-isopropyl-2H-pyrazol-3-yl)-2,4-dioxo-1,4-dihydro-2H-quinazolin-3-yl]-methanesulfonyl-carbamic acid butyl ester]	0	–	–
CCOC(=O)CCCC(=O)N(n1c(=O)[nH]c2cc(C(C)C)c(-c3ccnn3C)cc2c1=O)S(C)(=O)=O [Example 3.08, 5-{[7-Isopropyl-6-(2-methyl-2H-pyrazol-3-yl)-2,4-dioxo-1,4-dihydro-2H-quinazolin-3-yl]-methanesulfonyl-amino}-5-oxo-pentanoic acid ethyl ester]	–	–	responders at 15 mg/kg (po, pre-treatment time −1 h): 100%
CCCCCCOC(=O)N(n1c(=O)[nH]c2cc(C(F)(F)F)c([C@H]3CCCO3)cc2c1=O)S(C)(=O)=O [Methanesulfonyl-[(R)-2,4-Dioxo-6-tetrahydro-furan-2-yl-7-trifluoromethyl-1,4-dihydro-2H-quinazolin-3-yl]carbamic acid hexyl ester]	0	–	–
COCCOC(=O)N(n1c(=O)[nH]c2cc(C(F)(F)F)c(-c3ccnn3C(C)C)cc2c1=O)S(C)(=O)=O [Example 5.10, [6-(2-Isopropyl-2H-pyrazol-3-yl)-2,4-dioxo-7-trifluoromethyl-1,4-dihydro-2H-quinazolin-3-yl]-methanesulfonyl-carbamic acid 2-methoxy-ethyl ester]	–	20	–
CCCCC(=O)N(n1c(=O)[nH]c2cc(CC)c(-c3ccnn3C)cc2c1=O)S(C)(=O)=O [Example 2.11, N-[7-Ethyl-6-(2-methyl-2H-pyrazol-3-yl)-2,4-dioxo-1,4-dihydro-2H-quinazolin-3-yl]-N-pentanoyl-methanesulfonamide]	–	100	–
CCn1nccc1-c1cc2c(=O)n(N(C(=O)CCSC)S(C)(=O)=O)c(=O)[nH]c2cc1C(F)F [N-[7-Difluoromethyl-6-(2-ethyl-2H-pyrazol-3-yl)-2,4-dioxo-1,4-dihydro-2H-quinazolin-3-yl]-N-(3-methylsulfanyl-propionyl)-methanesulfonamide]	0	–	–
CC(C)CC(=O)N(n1c(=O)[nH]c2cc(C(C)C)c(-c3ccnn3C)cc2c1=O)S(C)(=O)=O [N-[7-Isopropyl-6-(2-methyl-2H-pyrazol-3-yl)-2,4-dioxo-1,4-dihydro-2H-quinazolin-3-yl]-N-(3-methyl-butyryl)-methanesulfonamide]	0	–	–
